In patent publication US20250179051A1, “PYRIMIDINLY-OXY-QUINOLINE BASED HERBICIDAL COMPOUNDS” (SYNGENTA CROP PROTECTION AG, priority 2022, published 2025):

Legend:
Format in all cases: in vivo
Conditions in all cases: 250 g/ha, evaluated after 13 days, five-point scale
[1] = system: Echinochloa crus-galli (ECHCG); experiment: Post-emergence herbicide glasshouse test
Protocol: (§1) Seeds of a variety of test species are sown in standard soil in pots Amaranthus retoflexus (AMARE), Amaranthus palmeri (AMAPA), Echinochloa crus-galli (ECHCG), Ipomoea hederacea (IPOHE), Setaria faberi (SETFA). After cultivation for one day (pre-emergence) or after 8 days cultivation (post-emergence) under controlled conditions in a glasshouse (at 24/16° C., day/night; 14 hours light; 65% humidity), the plants are sprayed with an aqueous spray solution derived from the formulation of the technical active ingredient in acetone/water (50:50) solution containing 0.5% Tween 20 (polyoxyethelyene sorbitan monolaurate, CAS RN 9005-64-5). Compounds are applied at 250 g/ha unless otherwise stated. The test plants are then grown in a glasshouse under controlled conditions in a glasshouse (at 24/16° C., day/night; 14 hours light; 65% humidity) and watered twice daily. After 13 days for pre and post-emergence, the test is evaluated for the percentage damage caused to the plant. The biological activities are shown in the following table on a five-point scale (5=81-100%; 4=61-80%; 3=41-60%; 2=21-40%; 1=0-20%).

[2] = system: Amaranthus retoflexus (AMARE); experiment: Post-emergence herbicide glasshouse test
Protocol: as §1

[3] = system: Amaranthus palmeri (AMAPA); experiment: Post-emergence herbicide glasshouse test
Protocol: as §1

[4] = system: Ipomoea hederacea (IPOHE); experiment: Post-emergence herbicide glasshouse test
Protocol: as §1

[5] = system: Setaria faberi (SETFA); experiment: Post-emergence herbicide glasshouse test
Protocol: as §1

[6] = system: Echinochloa crus-galli (ECHCG); experiment: Pre-emergence herbicide glasshouse test
Protocol: as §1

[7] = system: Amaranthus retoflexus (AMARE); experiment: Pre-emergence herbicide glasshouse test
Protocol: as §1

[8] = system: Amaranthus palmeri (AMAPA); experiment: Pre-emergence herbicide glasshouse test
Protocol: as §1

[9] = system: Ipomoea hederacea (IPOHE); experiment: Pre-emergence herbicide glasshouse test
Protocol: as §1

[10] = system: Setaria faberi (SETFA); experiment: Pre-emergence herbicide glasshouse test
Protocol: as §1

Row | SMILES | percentage damage caused to the plant, ECHCG [1] | percentage damage caused to the plant, AMARE [2] | percentage damage caused to the plant, AMAPA [3] | percentage damage caused to the plant, IPOHE [4] | percentage damage caused to the plant, SETFA [5] | percentage damage caused to the plant, ECHCG [6] | percentage damage caused to the plant, AMARE [7] | percentage damage caused to the plant, AMAPA [8] | percentage damage caused to the plant, IPOHE [9] | percentage damage caused to the plant, SETFA [10]
1 | CC(Br)c1nc(C(F)(F)F)nc2cccc(Oc3ncc(Cl)cn3)c12 (centres unmarked) [Compound 1.001, 4-(1-bromoethyl)-5-(5-chloropyrimidin-2-yl)oxy-2-(trifluoromethyl)quinazoline] | 1 (1=0-20%) | 3 (3=41-60%) | 3 (3=41-60%) | 3 (3=41-60%) | 1 (1=0-20%) | 1 (1=0-20%) | 2 (2=21-40%) | 3 (3=41-60%) | 1 (1=0-20%) | 2 (2=21-40%)
2 | FC(F)(F)c1nc(CCC2CC2)c2c(Oc3ncc(Cl)cn3)cccc2n1 [Compound 1.032] | 5 (5=81-100%) | 5 (5=81-100%) | 4 (4=61-80%) | 4 (4=61-80%) | 5 (5=81-100%) | 5 (5=81-100%) | 5 (5=81-100%) | 5 (5=81-100%) | 1 (1=0-20%) | 5 (5=81-100%)
3 | FC(F)c1cc(-c2nc(C(F)(F)F)nc3cccc(Oc4ncc(Cl)cn4)c23)on1 [Compound 1.035, 5-[5-(5-chloropyrimidin-2-yl)oxy-2-(trifluoromethyl)quinazolin-4-yl]-3-(difluoromethyl)isoxazole] | 1 (1=0-20%) | 4 (4=61-80%) | 4 (4=61-80%) | 1 (1=0-20%) | 2 (2=21-40%) | 2 (2=21-40%) | 5 (5=81-100%) | 5 (5=81-100%) | 1 (1=0-20%) | 3 (3=41-60%)
4 | Cc1ncc(-c2nc(C(F)(F)F)nc3cccc(Oc4ncc(Cl)cn4)c23)cn1 [Compound 1.014] | 1 (1=0-20%) | 1 (1=0-20%) | 1 (1=0-20%) | 1 (1=0-20%) | 1 (1=0-20%) | 1 (1=0-20%) | 2 (2=21-40%) | 2 (2=21-40%) | 1 (1=0-20%) | 1 (1=0-20%)
5 | FC(F)(F)c1nc(CCC=NOCC2CC2)c2c(Oc3ncc(Cl)cn3)cccc2n1 [Compound 1.005] | 4 (4=61-80%) | 4 (4=61-80%) | 5 (5=81-100%) | 2 (2=21-40%) | 4 (4=61-80%) | 4 (4=61-80%) | 3 (3=41-60%) | 5 (5=81-100%) | 1 (1=0-20%) | 5 (5=81-100%)
6 | CCON=CCc1nc(C(F)(F)F)nc2cccc(Oc3ncc(Cl)cn3)c12 [Compound 1.006] | 1 (1=0-20%) | 3 (3=41-60%) | 2 (2=21-40%) | 1 (1=0-20%) | 1 (1=0-20%) | 1 (1=0-20%) | 1 (1=0-20%) | 3 (3=41-60%) | 1 (1=0-20%) | 1 (1=0-20%)
7 | O=C(c1ccc(Cl)cn1)c1nc(C(F)(F)F)nc2cccc(Oc3ncc(Cl)cn3)c12 [Compound 1.070] | 1 (1=0-20%) | 2 (2=21-40%) | 1 (1=0-20%) | 1 (1=0-20%) | 1 (1=0-20%) | 1 (1=0-20%) | 5 (5=81-100%) | 5 (5=81-100%) | 1 (1=0-20%) | 1 (1=0-20%)
8 | CC(=O)c1nc(C(F)(F)F)nc2cccc(Oc3ncc(Cl)cn3)c12 [Compound 1.028, 1-[5-(5-chloropyrimidin-2-yl)oxy-2-(trifluoromethyl)quinazolin-4-yl]ethanone] | 1 (1=0-20%) | 4 (4=61-80%) | 4 (4=61-80%) | 3 (3=41-60%) | 2 (2=21-40%) | 2 (2=21-40%) | 5 (5=81-100%) | 5 (5=81-100%) | 1 (1=0-20%) | 3 (3=41-60%)
9 | FC(F)(F)CCC(Br)c1nc(C(F)(F)F)nc2cccc(Oc3ncc(Cl)cn3)c12 (centres unmarked) [Compound 1.071] | 5 (5=81-100%) | 5 (5=81-100%) | 5 (5=81-100%) | 3 (3=41-60%) | 4 (4=61-80%) | 5 (5=81-100%) | 5 (5=81-100%) | 5 (5=81-100%) | 1 (1=0-20%) | 5 (5=81-100%)
10 | FC(F)(F)c1nc(CCC2CCCCC2)c2c(Oc3ncc(Cl)cn3)cccc2n1 [Compound 1.045] | 2 (2=21-40%) | 4 (4=61-80%) | 4 (4=61-80%) | 3 (3=41-60%) | 2 (2=21-40%) | 4 (4=61-80%) | 3 (3=41-60%) | 5 (5=81-100%) | 1 (1=0-20%) | 4 (4=61-80%)
11 | FC(F)(F)c1ncc(-c2nc(C(F)(F)F)nc3cccc(Oc4ncc(Cl)cn4)c23)cn1 [Compound 1.013, 5-(5-chloropyrimidin-2-yl)oxy-2-(trifluoromethyl)-4-[2-(trifluoromethyl)pyrimidin-5-yl]quinazoline] | 1 (1=0-20%) | 2 (2=21-40%) | 2 (2=21-40%) | 1 (1=0-20%) | 1 (1=0-20%) | 1 (1=0-20%) | 1 (1=0-20%) | 1 (1=0-20%) | 1 (1=0-20%) | 1 (1=0-20%)
